# Source: publication PMC9505659, “Mixture Effects of Tryptophan Intestinal Microbial Metabolites on Aryl Hydrocarbon Receptor Activity” (International Journal of Molecular Sciences, 2022)
# Where two headings read alike, the source gives them in different places.
# Experiments:
# [1] = target: T1, peroxisome proliferator-activated receptor gamma (PPARγ) (Homo sapiens, UniProt P37231); assay: Nuclear receptor counter-screen, luciferase reporter assay PAZ-PPARg cells; assay type: cell-based; conditions: 15d-PGDJ 40 µM, 24 h
# T1 construct: PAZ-PPARg (derived from the human bladder carcinoma cell line T24/83); endogenous in cells; host or cells: PAZ-PPARg (T24/83 stably transfected reporter line)
# T1 sequence (P37231 1-505): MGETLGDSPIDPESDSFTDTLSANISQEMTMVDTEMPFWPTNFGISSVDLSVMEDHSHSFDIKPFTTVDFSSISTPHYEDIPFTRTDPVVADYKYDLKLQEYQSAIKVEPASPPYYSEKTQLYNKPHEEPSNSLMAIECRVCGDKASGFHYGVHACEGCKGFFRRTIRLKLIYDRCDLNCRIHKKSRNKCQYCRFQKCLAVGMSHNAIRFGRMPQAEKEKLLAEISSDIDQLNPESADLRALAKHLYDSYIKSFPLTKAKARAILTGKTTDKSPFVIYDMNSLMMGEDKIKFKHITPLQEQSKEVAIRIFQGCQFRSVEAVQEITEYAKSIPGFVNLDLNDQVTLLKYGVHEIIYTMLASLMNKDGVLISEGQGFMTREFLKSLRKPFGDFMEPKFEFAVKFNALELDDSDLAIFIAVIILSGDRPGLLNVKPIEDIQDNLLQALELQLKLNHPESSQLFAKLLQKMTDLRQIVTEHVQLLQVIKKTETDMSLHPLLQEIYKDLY
# Description: (§2) The following stably transfected reporter gene cell lines were used to estimate specific receptor activation: AZ-AHR (derived from the human hepatocellular carcinoma cell line HepG2) [41], LS174T-AHR-luc (harboring the reporter plasmid pGL-4.27-DRE and prepared by the same protocol as AZ-AHR, AZ-GR (derived from the human cervix carcinoma cell line HeLa)) [42], and IZ-VDRE (derived from the human colon adenocarcinoma cell line LS180) [43]. Cells were cultured in Dulbecco’s modified Eagle’s medium supplemented with 10% fetal bovine serum, 4 mM L-glutamine, 1% nonessential amino acids and antibiotics, and 100 U/mL Penicillin-Streptomycin. […]
# (§3) The reporter cells were seeded into 96-well plates at a density of 2.5 × 10^4 (AZ-AHR, LS174T-AHR-luc, IZ-VDRE), 5 × 10^4 (AIZ-AR), 2.2 × 10^4 (AZ-GR), or 4 × 10^4 (PAZ-PPARg) cells in 0.2 mL of culture medium. […] After treatment, cells were lysed in a lysis buffer and the luciferase activity was measured in a 96-well plate format using the Nano-Glo Luciferase AssaySystem for the PAZ-PPARg and IZ-VDRE cell lines and the Luciferase AssaySystem for the AZ-AHR, LS174T-AHR-luc, AIZ-AR, and AZ-GR cell lines on a Tecan Infinite M200 Pro Plate Reader (Tecan, Männedorf, Switzerland).
# AHR [2] = system: AHR; set-up: method as in PMID 32283770; conditions: reporter hepatic cell line, 24 h of incubation; cited from earlier work
# AHR [3] = target: T2, AHR (Homo sapiens, UniProt P35869); assay: High-throughput AHR reporter gene assay in AZ-AHR cells;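 also: luciferase activity measured in lysed AZ-AHR reporter cells after 4 h compound exposure, with 0.1% DMSO as vehicle control and 5 nM TCDD as reference agonist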
# T2 sequence (P35869 11-848): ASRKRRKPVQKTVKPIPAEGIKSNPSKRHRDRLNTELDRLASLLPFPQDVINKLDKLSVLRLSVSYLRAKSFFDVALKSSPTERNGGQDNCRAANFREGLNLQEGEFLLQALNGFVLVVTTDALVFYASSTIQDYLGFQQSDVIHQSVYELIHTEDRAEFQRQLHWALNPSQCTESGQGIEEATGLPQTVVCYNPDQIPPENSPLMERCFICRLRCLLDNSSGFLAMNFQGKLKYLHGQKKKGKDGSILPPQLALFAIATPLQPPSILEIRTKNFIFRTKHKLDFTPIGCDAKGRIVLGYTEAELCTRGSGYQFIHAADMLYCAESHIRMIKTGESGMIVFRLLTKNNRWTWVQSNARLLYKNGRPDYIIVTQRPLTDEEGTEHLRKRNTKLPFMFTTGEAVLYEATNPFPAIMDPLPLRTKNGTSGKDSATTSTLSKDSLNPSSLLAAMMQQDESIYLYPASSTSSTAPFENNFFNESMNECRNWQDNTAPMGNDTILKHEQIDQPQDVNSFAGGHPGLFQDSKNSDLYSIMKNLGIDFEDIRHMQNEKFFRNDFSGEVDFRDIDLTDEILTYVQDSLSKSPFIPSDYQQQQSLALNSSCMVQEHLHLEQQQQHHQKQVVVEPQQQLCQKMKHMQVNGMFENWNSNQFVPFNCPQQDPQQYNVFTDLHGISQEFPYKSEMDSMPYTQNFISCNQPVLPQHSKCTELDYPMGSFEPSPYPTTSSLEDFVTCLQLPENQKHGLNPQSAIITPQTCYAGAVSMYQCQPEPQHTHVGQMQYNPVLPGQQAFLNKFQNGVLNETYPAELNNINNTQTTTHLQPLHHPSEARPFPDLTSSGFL
# Description: (§4) After 24 h of incubation, the cells were treated with the reference (5 nM TCDD) and tested compounds using a contact-free acoustic liquid handler ECHO 550 (Labcyte, San Jose, CA, USA). […] The cells were incubated with the tested compounds for 4 h. Thereafter, the cells were washed with PBS by Washer EL406 (BioTek, Winooski, VT, USA) and lysed by 1x gene reporter lysis buffer (E3971, Promega). After adding the substrate (D-Luciferin, L9504, Sigma) with a dispenser Multidrop Combi (ThermoFisher Scientific), the luciferase activity was measured on a multimode plate reader EnVision (PerkinElmer). The experiments were performed in technical duplicates and three biological replicates at least.
# [4] = target: glucocorticoid receptor (GR) (Homo sapiens, UniProt P04150); assay: cell-based
# Sequence of glucocorticoid receptor (GR) (P04150 whole entry): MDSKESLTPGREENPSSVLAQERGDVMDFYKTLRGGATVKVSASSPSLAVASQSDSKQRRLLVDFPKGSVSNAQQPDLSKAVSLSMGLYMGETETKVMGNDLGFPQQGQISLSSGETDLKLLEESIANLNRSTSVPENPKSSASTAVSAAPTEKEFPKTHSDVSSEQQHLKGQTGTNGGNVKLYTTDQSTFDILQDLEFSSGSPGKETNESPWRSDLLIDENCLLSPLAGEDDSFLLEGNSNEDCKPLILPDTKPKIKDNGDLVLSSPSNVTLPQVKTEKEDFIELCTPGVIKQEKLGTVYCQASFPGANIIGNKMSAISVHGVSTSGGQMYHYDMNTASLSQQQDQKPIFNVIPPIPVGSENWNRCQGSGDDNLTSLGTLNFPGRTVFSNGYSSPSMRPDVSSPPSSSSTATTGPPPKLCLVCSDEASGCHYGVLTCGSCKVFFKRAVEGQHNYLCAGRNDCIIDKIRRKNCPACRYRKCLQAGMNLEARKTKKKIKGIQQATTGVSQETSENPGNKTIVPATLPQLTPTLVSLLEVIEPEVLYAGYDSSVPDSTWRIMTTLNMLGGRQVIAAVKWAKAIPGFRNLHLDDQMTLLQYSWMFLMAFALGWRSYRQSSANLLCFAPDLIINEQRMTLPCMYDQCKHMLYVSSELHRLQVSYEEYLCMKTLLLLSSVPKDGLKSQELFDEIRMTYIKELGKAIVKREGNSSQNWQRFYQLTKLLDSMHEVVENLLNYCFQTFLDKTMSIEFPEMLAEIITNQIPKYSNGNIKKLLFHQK
# Source text: (§1) The human colon adenocarcinoma cell line LS174T was purchased from the American Type Culture Collection (ATCC). The following stably transfected reporter gene cell lines were used to estimate specific receptor activation: AZ-AHR (derived from the human hepatocellular carcinoma cell line HepG2), LS174T-AHR-luc (harboring the reporter plasmid pGL-4.27-DRE and prepared by the same protocol as AZ-AHR, AZ-GR (derived from the human cervix carcinoma cell line HeLa)), and IZ-VDRE (derived from the human colon adenocarcinoma cell line LS180). Cells were cultured in Dulbecco’s modified Eagle’s medium supplemented with 10% fetal bovine serum, 4 mM L-glutamine, 1% nonessential amino acids and antibiotics, and 100 U/mL Penicillin-Streptomycin. AIZ-AR (derived from the human prostate carcinoma cell line 22RV1) was cultivated in RPMI-1640 medium supplemented with 10% charcoal-stripped fetal bovine serum, 4 mM L-glutamine, and antibiotics 100 U/mL Penicillin-Streptomycin. PAZ-PPARg (derived from the human bladder carcinoma cell line T24/83) was cultivated in Dulbecco’s modified Eagle’s medium supplemented with 10% charcoal-stripped fetal bovine serum, 4 mM L-glutamine and antibiotics, and 100 U/mL Penicillin-Streptomycin. Cells were maintained in 75 cm^2 plastic tissue culture flasks and subcultured twice a week.
# androgen receptor (AR) = conditions: DHT 100 nM, 24 h
# Description: The human colon adenocarcinoma cell line LS174T was purchased from the American Type Culture Collection (ATCC). […] Cells were cultured in Dulbecco’s modified Eagle’s medium supplemented with 10% fetal bovine serum, 4 mM L-glutamine, 1% nonessential amino acids and antibiotics, and 100 U/mL Penicillin-Streptomycin. […] PAZ-PPARg (derived from the human bladder carcinoma cell line T24/83) was cultivated in Dulbecco’s modified Eagle’s medium supplemented with 10% charcoal-stripped fetal bovine serum, 4 mM L-glutamine and antibiotics, and 100 U/mL Penicillin-Streptomycin. Cells were maintained in 75 cm^2 plastic tissue culture flasks and subcultured twice a week.
# AHR [5] = target: T2, AHR
# Description: as §4
# vitamin D receptor (VDR) = target: T3, vitamin D receptor (VDR) (Homo sapiens, UniProt P11473); assay: Nuclear receptor counter-screen, luciferase reporter assay IZ-VDRE cells; assay type: cell-based; conditions: VD3 75 nM, 24 h
# T3 construct: IZ-VDRE (derived from the human colon adenocarcinoma cell line LS180); endogenous in cells; host or cells: IZ-VDRE (LS180 stably transfected reporter line)
# T3 sequence (P11473 1-427): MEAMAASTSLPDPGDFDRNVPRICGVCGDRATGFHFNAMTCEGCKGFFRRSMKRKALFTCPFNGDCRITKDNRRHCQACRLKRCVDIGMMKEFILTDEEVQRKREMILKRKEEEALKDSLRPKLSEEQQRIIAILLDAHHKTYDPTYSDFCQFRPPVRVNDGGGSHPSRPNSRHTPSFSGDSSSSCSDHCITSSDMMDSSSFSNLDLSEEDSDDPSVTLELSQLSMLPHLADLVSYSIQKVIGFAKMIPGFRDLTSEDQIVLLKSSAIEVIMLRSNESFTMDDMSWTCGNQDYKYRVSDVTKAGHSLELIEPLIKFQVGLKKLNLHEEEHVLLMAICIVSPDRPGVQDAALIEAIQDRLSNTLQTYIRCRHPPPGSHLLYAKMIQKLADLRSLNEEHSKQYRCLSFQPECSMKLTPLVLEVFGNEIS
# Description: as §2, §3
# AHR [6] = target: T2, AHR; set-up: AZ-AHR (derived from the human hepatocellular carcinoma cell line HepG2); endogenous in cells; host or cells: AZ-AHR (HepG2 stably transfected with a reporter); method as in PMID 26235394; conditions: 4 h of incubation, human hepatic HepG2 (40/6) reporter cells; cited from earlier work
# AHR [7] = target: T2, AHR; assay: AHR luciferase reporter assay in LS174T-AHR-luc cells; assay type: cell-based; set-up: endogenous in cells; conditions: IND 274 µM (highest applied concentration), 4 h, TCDD 20 nM
# Source text: as §1
# AZ-AHR cells = assay: Cell viability assays (MTT, neutral red, LDH) in AZ-AHR cells; assay type: cell-based, human; conditions: 24 h, 2.5 and 5 mM
# Description: The highest concentrations of the tested compounds were adjusted based on their solubility. […] The MTT (3-(4,5,-dimethylthiazol-2-yl)-2,5-diphenyltetrazolium bromide) colorimetric assay was performed as previously described. The neutral red assay and LDH (Abcam, Cambridge, UK) assays were performed according to the manufacturer’s protocol. Assays were measured spectrophotometrically using a Tecan Infinite M200 plate reader (Tecan, Männedorf, Switzerland).
# [8] = AZ-AHR cells, 4 h, luciferase activity by MICT in highest concentration / by 5 nM TCDD
SMILES,AHR agonist efficacy class (AHR [2]),EC50 (AHR [3]) [µM],"efficacy class of AHR agonist based on magnitude of luciferase induction (AHR [3]; AZ-AHR cells, 4 h)",further results
"CCCCC/C=C/C=C1/C(=O)C=C[C@@H]1C/C=C\CCCC(=O)O [15d-PGDJ, 15-Deoxy-δ12,14-Prostaglandin J2]",,,,fold induction [1]: 3 fold
"NC(=O)Cc1c[nH]c2ccccc12 [IAD, indole-3-acetamide]",high-efficacy,4.5,high,"relative efficacy, % of maximal induction to TCDD (AHR [3]; [8]): 84%"
"C[C@@H]1C[C@H]2[C@@H]3CCC4=CC(=O)C=C[C@]4(C)[C@@]3(F)[C@@H](O)C[C@]2(C)[C@@]1(O)C(=O)CO [DEX, dexamethasone]",,,,fold induction at 0.1 µM [4]: 22
"O=C(O)C(O)Cc1c[nH]c2ccccc12 (centres unmarked) [ILA, indole-3-lactate]",no or low efficacy,,,
"C[C@]12CCC(=O)C[C@@H]1CC[C@@H]1[C@@H]2CC[C@]2(C)[C@@H](O)CC[C@@H]12 [DHT, 5α-dihydrotestosterone]",,,,fold induction (androgen receptor (AR)): 20 fold
"O=Cc1c[nH]c2ccccc12 [IA, Indole-3-aldehyde]",no or low efficacy,18.9 ± 3.9,low,"relative efficacy, % of maximal induction to TCDD (AHR [3]; [8]): ≈ 25%"
"O=C(O)/C=C/c1c[nH]c2ccccc12 [IAC, indole-3-acrylate]",medium efficacy,,high,"EC50 (AHR [5]): 8.4 µM; relative efficacy, % of maximal induction to TCDD (AHR [3]; [8]): 68%"
"C=C1CC[C@H](O)C/C1=C/C=C1\CCC[C@]2(C)[C@@H]([C@H](C)CCCC(C)C)CC[C@@H]12 [VD3, cholecalciferol]",,,,fold induction at 0.075 µM (vitamin D receptor (VDR)): 65
"O=C(O)C(=O)Cc1c[nH]c2ccccc12 [IPY, indole-3-pyruvate]",high-efficacy,,high,"EC50 (AHR [5]): 24.4 ± 12 µM; relative efficacy, % of maximal induction to TCDD (AHR [3]; [8]): 77%"
"OCCc1c[nH]c2ccccc12 [IET, indole-3-ethanol]",medium efficacy,29.3 ± 8.2,medium,
"O=C(O)Cc1c[nH]c2ccccc12 [IAA, indole-3-acetate]",no or low efficacy,,,
"NCCc1c[nH]c2ccccc12 [TA, tryptamine]",medium efficacy,13.8,,efficacy class of AHR agonist based on magnitude of luciferase induction (AHR [3]): medium
"Clc1cc2c(cc1Cl)Oc1cc(Cl)c(Cl)cc1O2 [TCDD, 2,3,7,8-tetrachlorodibenzo-p-dioxin, reference compound]",,,,"fold induction at 0.005 µM (AHR [3]; read-out: fold induction of luciferase activity, AZ-AHR cells, 4 h, TCDD 5 nM, over control cells): ~200"
"Cc1c[nH]c2ccccc12 [3MI, 3-methylindole]",medium efficacy,8.4,medium,
"O=C(O)CCc1c[nH]c2ccccc12 [IPA, indole-3-propionate]",no or low efficacy,,,"EC50 (AHR [5]): 48.1 ± 15.2 µM; efficacy class of AHR agonist based on magnitude of luciferase induction (AHR [3]): low; relative efficacy, % of maximal induction to TCDD (AHR [3]): ≈ 25%"
"c1ccc2[nH]ccc2c1 [IND, Indole]",high-efficacy,37.6 ± 14.4,,EC50 (AHR [6]): ~3 µM; AHR activation compared with TCDD (AHR [7]): stronger than TCDD; EC50 (AHR [2]): ~1500 µM; efficacy class of AHR agonist based on magnitude of luciferase induction (AHR [3]): high; indole concentrations under which AHR was saturated (AHR [3]): > 20 µM; toxicity at very high concentrations (AZ-AHR cells): toxic
